As usually defined, the IC50 is the concentration that gives 50% inhibition. The term inhibition denotes the change of the read-out against control, counted positive when it falls.

This note sets out measurements from patent publication US20260306527A1, “PRMT INHIBITOR COMPOUNDS AND THE USES THEREOF” (Purdue Research Foundation, priority 2023, published 2026).

Bounds are passed on as bounds.

Holding throughout (assay type): biochemical
Assay [1] has as its system PRMT3. As to the kind of experiment: SAHH-coupled fluorescence assay, inhibition of PRMT3. Particulars: read-out: IC50 [µM] | PRMT3. The essentials:
(§1)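 Coupled SAHH/ThioGlo4 fluorescence read-out (ex 380 nm, em 505 nm) of PRMT3 (0.25 μM) methylation with 30 μM AdoMet and 5 μM SAHH. Buffer was 20 mM Tris pH 7.5 with 0.01% Triton X-100. Run in duplicate.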

For assay [2], the target named is PRMT6 (Homo sapiens, UniProt Q96LA8). Nature of the assay: radioactive assay (Reaction Biology Corp.), inhibition of PRMT6. The procedure:
(§2) Next, the inhibition activity of the library was investigated for five PRMT members from type I PRMTs.
(§3) The PRMT 4, 6 and 8 methylation assays were performed by Reaction Biology corp.

The target of assay [3] is PRMT8 (Homo sapiens, UniProt Q9NR22). Nature of the assay: radioactive assay (Reaction Biology Corp.), inhibition of PRMT8. The procedure: as §2, §3
The target of assay [4] is T1, PRMT1 (Homo sapiens, UniProt Q99873).
T1 construct: made in house
Nature of the assay: selectivity of YD1113/YD1290 on PRMT panel, PRMT1. To be noted: 10 μM; PRMT panel. The procedure: (§4) The selectivity of compounds YD1113 and YD1290 on PRMTs were performed by Reaction Biology Corp.
(§5) Next, the selectivity of YD1113 was investigated on a panel of PRMTs at 10 μM.
(§6) After validating the benzyl urea moiety as an unconventional homocysteine mimic of SAH for PRMTs, it was hypothesized that incorporating the benzyl urea moiety into the original pan PRMT inhibitor II757 would build a potent bisubstrate inhibitor. […] To enable a stable tri-substitution, the sulfur atom with a nitrogen atom was replaced. YD1290 was synthesized following the reported methods 9, 15 and tested in a radioactivity assay for PRMTs (FIG. 6b).

For assay [5], the target named is T2, PRMT3 (Homo sapiens, UniProt O60678). As to the kind of experiment: selectivity of YD1113/YD1290 on PRMT panel, PRMT3. The procedure:
as §4, §5, §6
Target sequence in this assay (O60678 whole entry, species assumed): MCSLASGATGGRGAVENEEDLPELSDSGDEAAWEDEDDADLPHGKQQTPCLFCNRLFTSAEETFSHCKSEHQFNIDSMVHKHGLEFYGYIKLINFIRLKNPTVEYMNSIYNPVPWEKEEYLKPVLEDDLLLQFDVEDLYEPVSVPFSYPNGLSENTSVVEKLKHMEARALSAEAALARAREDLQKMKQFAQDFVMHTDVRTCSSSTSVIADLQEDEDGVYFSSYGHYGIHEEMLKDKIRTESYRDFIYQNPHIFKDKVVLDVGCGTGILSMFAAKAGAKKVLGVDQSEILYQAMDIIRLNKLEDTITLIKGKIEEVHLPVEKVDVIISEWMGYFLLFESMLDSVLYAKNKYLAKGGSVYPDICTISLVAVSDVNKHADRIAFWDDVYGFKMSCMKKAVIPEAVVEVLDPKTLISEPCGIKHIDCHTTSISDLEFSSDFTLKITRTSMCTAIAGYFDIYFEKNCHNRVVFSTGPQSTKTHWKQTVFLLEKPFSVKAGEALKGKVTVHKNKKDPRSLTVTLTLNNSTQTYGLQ

Assay [6] addresses T2, PRMT3. As to the kind of experiment: SAHH-coupled fluorescence assay, inhibition of PRMT3. Details: PRMT3 (residues 211-531) was cloned into the pET28a-MHL expression vector; tag of the pET28a-MHL vector (not described); made in house; host or cells: Escherichia coli BL21(DE3). The essentials:
as §1
Target sequence in this assay (O60678 211-531): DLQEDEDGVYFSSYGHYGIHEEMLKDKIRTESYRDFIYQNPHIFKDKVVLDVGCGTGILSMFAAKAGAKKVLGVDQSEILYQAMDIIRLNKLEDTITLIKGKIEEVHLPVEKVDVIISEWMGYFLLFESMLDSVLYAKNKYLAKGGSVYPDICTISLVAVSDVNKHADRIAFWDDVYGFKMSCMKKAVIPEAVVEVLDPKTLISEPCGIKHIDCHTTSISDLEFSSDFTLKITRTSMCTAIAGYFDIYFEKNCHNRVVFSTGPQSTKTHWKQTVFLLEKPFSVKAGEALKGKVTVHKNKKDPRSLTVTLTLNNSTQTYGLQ

The target in assay [7] is T2, PRMT3. Nature of the assay: inhibition mechanism study on PRMT3, SAHH-coupled fluorescence. On the set-up: PRMT3 (residues 211-531) was cloned into the pET28a-MHL expression vector; tag of the pET28a-MHL vector (not described); made in house; host or cells: Escherichia coli BL21(DE3). Particulars: role: inhibitor. Here is the method: The inhibition mechanism of YD1113 on PRMT3 was studied with the fluorescence-based SAHH-coupled assay. Varying concentrations of SAM (from 30 to 240 μM) with 30 μM fixed concentration of H4-21 or varying concentration of H4-21 (from 15 to 240 μM) with 30 μM fixed concentration of SAM were included in reactions at concentration of YD1113 ranging from 1.5 nM to 100 μM.
All the IC50 values were determined in triplicate. Fluorescence was monitored on a BMG CLARIOstar microplate reader with excitation 380 nm and emission 505 nm. Data were processed by using GraphPad Prism software 8.0.
The sensitivity of YD1113 to the steric effects in the above SAR studies (Table 1; FIG. 9) is inexplicable by a relatively open and tolerable peptide substrate binding channel of PRMTs. (Tewary et al. 2019) This contradiction prompted the hypothesis that YD1113 binds to an alternative pocket rather than acts as a bisubstrate analogue to reach the peptide binding pocket. This hypothesis was tested by investigating its inhibition mechanism with a SAHH-coupled fluorescence-based assay. (Richardson et al. 2015) The IC50 values of YD1113 remained constant with the increased ratio of peptide/Km (FIG. 3a-b) while increasing linearly with the ratio of SAM/Km (FIG. 3c-d). […]
Target sequence in this assay (O60678 211-531): as above

T1 sequence (Q99873 whole entry, species assumed): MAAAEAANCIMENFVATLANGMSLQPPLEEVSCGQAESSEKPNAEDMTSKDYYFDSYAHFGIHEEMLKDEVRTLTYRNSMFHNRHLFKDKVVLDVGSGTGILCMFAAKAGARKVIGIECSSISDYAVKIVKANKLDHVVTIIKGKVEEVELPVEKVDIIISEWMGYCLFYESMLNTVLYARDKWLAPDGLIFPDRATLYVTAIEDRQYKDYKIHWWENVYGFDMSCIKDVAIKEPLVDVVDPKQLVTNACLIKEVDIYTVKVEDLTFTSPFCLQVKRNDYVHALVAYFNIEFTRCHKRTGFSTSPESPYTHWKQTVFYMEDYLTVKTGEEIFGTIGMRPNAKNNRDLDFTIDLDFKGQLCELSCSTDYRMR
Sequence of PRMT6 (Q96LA8 whole entry, species assumed): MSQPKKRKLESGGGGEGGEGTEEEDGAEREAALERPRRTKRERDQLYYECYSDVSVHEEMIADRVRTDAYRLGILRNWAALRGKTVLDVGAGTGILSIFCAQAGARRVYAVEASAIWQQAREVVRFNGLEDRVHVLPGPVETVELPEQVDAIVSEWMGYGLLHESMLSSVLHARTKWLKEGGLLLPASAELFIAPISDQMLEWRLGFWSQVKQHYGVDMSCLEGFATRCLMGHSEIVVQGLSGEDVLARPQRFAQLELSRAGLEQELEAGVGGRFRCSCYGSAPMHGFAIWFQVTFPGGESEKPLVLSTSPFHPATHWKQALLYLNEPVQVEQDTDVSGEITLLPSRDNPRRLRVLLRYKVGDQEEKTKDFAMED
Sequence of PRMT8 (Q9NR22 whole entry, species assumed): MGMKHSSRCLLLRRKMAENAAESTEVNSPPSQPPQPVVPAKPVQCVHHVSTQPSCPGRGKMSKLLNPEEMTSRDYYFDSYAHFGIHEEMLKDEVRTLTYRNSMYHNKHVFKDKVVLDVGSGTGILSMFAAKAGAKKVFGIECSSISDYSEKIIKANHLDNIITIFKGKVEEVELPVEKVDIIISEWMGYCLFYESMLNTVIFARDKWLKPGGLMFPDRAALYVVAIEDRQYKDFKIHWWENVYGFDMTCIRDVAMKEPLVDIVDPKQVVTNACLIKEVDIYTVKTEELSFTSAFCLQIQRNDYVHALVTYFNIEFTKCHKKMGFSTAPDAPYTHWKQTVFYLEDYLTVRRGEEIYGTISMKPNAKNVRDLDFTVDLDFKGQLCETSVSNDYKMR

In the case of `Nc1ncnc2c1ncn2[C@@H]1O[C@H](CSCCNC(=O)NCc2ccccc2)[C@@H](O)[C@H]1O` [Compound 7a, 1-(2-((((2S,3S,4R,5R)-5-(6-amino-9H-purin-9-yl)-3,4-dihydroxytetrahydrofuran-2-yl)methyl)thio)ethyl)-3-benzylurea], the IC50 in assay [1] turned out to be 0.52 ± 0.07 µM; in assay [5] it was 321 nM. Moreover, the inhibition at 10 µM is 89% in assay [2], 12% in assay [3], below 35% in assay [4] and 80% in assay [6]. Moreover, the “inhibition mechanism vs peptide substrate, PRMT3” value in assay [7] (H4-21 15 to 240 μM, SAM 30 μM fixed) is listed as “noncompetitive to the peptide substrate”. Moreover, in assay [7] (SAM 30 to 240 μM, H4-21 30 μM fixed), the “inhibition mechanism vs SAM, PRMT3” value was “competitive to SAM”.
